Results as given in PubChem BioAssay AID1963967 (Molecular Pharmacology Branch, DTP, NCI, 2024).

Tested on: 855422-203-R-J1-PDC spheroids with HUVEC/MSC, viability
Experiment: Anticancer human tumor 855422-203-R-J1-PDC patient-derived bladder carcinoma cell line growth inhibition [PI3K]
Conditions: for viability, T/C: stronger effect = lower value
Source text: Combinatorial screen of targeted agents with the PI3K inhibitors inavolisib, alpelisib, duvelisib, and copanlisib in multi-cell type tumor spheroids
A high-throughput screen of multi-cell type tumor spheroids was designed to identify active combinations of targeted small molecules and PI3K pathway inhibitors. Complex spheroids include a stromal component modeled by human endothelial cells (HUVEC) and fibroblasts modeled by human mesenchymal stem cells (MSCs). The concentration ranges selected for each drug and investigational agent were based upon clinically achievable concentrations if the clinical Cmax of the agent was known.
Compounds. The drugs and investigational agents: inavolisib (NSC800729), alpelisib (NSC765974), duvelisib (NSC772469), copanlisib (NSC816437), ipatasertib (NSC767898), afuresertib (NSC778305), talazoparib (NSC767125), sapanisertib (NSC764658), selumetinib (NSC741078), tovorafenib (DAY101, NSC766906), vemurafenib (NSC761431), ravoxertinib (NSC781343), sotorasib (NSC818433), MRTX1133 (NSC 836407), abemaciclib (NSC 768073), palbociclib (NSC758247), venetoclax (NSC 766270), SY5609 (NSC837396), enzalutamide (NSC755605), and darolutamide (NSC825331), were obtained from the National Cancer Institute (NCI) Developmental Therapeutics Program Chemical Repository. The FDA-approved anticancer drug set is available from the NCI Developmental Therapeutics Program. […] The stock solutions were prepared in dimethyl sulfoxide (DMSO, Sigma-Aldrich, St. Louis, MO, cat. D2650) at 800-fold the tested concentration and stored at -70 degrees C prior to their use. All drugs and investigational agents were tested over a range starting from a high concentration at or near the clinical Cmax and decreasing in half-log increments. If the clinical Cmax for an agent had not been determined, the highest concentration tested was 10 microM.
Cell Culture. All cells were maintained in an incubator at 37 degrees C and 5% CO2 with 95% humidity. The PDC lines were cultured according to standard operating procedures established by the NCI PDMR (https://pdmr.cancer.gov/sops/default.htm). All PDCs were thawed and cultured in Matrigel-coated flasks prepared with a working solution of 1X Ham's F-12 nutrient mix, without supplementation (Invitrogen, Waltham, MA, cat. 11765054), 100 U/mL penicillin-streptomycin (Invitrogen, cat. 15140122), and 2.5% Matrigel (Corning Inc., Corning, NY, cat. 354248) for the first three passages. The 354836-022-R-J1-PDC, 475296-252-R-J1-PDC, and 997726-040-R-J2-PDC lines were cultured in 6A media, which includes advanced DMEM/F-12 (Thermo Fisher Scientific, cat. 12634028), 10 mM HEPES (Thermo Fisher Scientific, cat. 15630080), 1X GlutaMAX supplement (Thermo Fisher Scientific, cat. 35050061), 0.1 mg/mL primocin (InvivoGen, San Diego, CA, cat. ant-pm-2), 10% defined fetal bovine serum, heat inactivated (HyClone Laboratories Inc., Logan, UT, cat. SH30070.03HI), 50% L-WRN conditioned media (ATCC, cat. CRL-3276), 1.25 mM N-Acetyl-L-cysteine (Sigma-Aldrich, cat. A9165), 10 mM nicotinamide (Sigma-Aldrich, cat. N0636), 1X B-27 supplement (Thermo Fisher Scientific, cat. 17504044), 1X N-2 supplement (Thermo Fisher Scientific, cat. 17502048), and 10 microM Y-27632 dihydrochloride (Tocris Bioscience, Bristol, United Kingdom, cat. 1254). The 624824-186-R-J2-PDC line was cultured in 6C/Colon 1B media, which includes all 6A media components plus 50 ng/mL human EGF recombinant protein (Thermo Fisher Scientific, cat. PHG0311). […]

[1] = curve of first compound, second compound 0.0316 µM
[2] = curve of first compound, second compound 0.1 µM
[3] = curve of first compound, second compound 0.316 µM
[4] = curve of first compound, second compound 1 µM
[5] = curve of first compound, second compound 3.16 µM
[6] = curve of first compound, second compound 10 µM
[7] = second compound 0.0316 µM, first compound 0.0316 µM
[8] = second compound 0.0316 µM, first compound 0.1 µM
[9] = second compound 0.0316 µM, first compound 0.316 µM
[10] = second compound 0.0316 µM, first compound 1 µM
[11] = second compound 0.0316 µM, first compound 3.16 µM
[12] = second compound 0.0316 µM, first compound 10 µM
[13] = second compound 0.1 µM, first compound 0.0316 µM
[14] = second compound 0.1 µM, first compound 0.1 µM
[15] = second compound 0.1 µM, first compound 0.316 µM
[16] = second compound 0.1 µM, first compound 1 µM
[17] = second compound 0.1 µM, first compound 3.16 µM
[18] = second compound 0.1 µM, first compound 10 µM
[19] = second compound 0.316 µM, first compound 0.0316 µM
[20] = second compound 0.316 µM, first compound 0.1 µM
[21] = second compound 0.316 µM, first compound 0.316 µM
[22] = second compound 0.316 µM, first compound 1 µM
[23] = second compound 0.316 µM, first compound 3.16 µM
[24] = second compound 0.316 µM, first compound 10 µM
[25] = second compound 1 µM, first compound 0.0316 µM
[26] = second compound 1 µM, first compound 0.1 µM
[27] = second compound 1 µM, first compound 0.316 µM
[28] = second compound 1 µM, first compound 1 µM
[29] = second compound 1 µM, first compound 3.16 µM
[30] = second compound 1 µM, first compound 10 µM
[31] = second compound 3.16 µM, first compound 0.0316 µM
[32] = second compound 3.16 µM, first compound 0.1 µM
[33] = second compound 3.16 µM, first compound 0.316 µM
[34] = second compound 3.16 µM, first compound 1 µM
[35] = second compound 3.16 µM, first compound 3.16 µM
[36] = second compound 3.16 µM, first compound 10 µM
[37] = second compound 10 µM, first compound 0.0316 µM
[38] = second compound 10 µM, first compound 0.1 µM
[39] = second compound 10 µM, first compound 0.316 µM
[40] = second compound 10 µM, first compound 1 µM
[41] = second compound 10 µM, first compound 3.16 µM
[42] = second compound 10 µM, first compound 10 µM
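Note: agents incubated with spheroids for one week before read-out.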
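Throughout, for viability, T/C: 100% = DMSO vehicle-treated control wells.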

CC(C)NCC(C(=O)N1CCN(c2ncnc3c2C(C)CC3O)CC1)c1ccc(Cl)cc1 (configuration not stated) + Cc1nc(NC(=O)N2CCCC2C(N)=O)sc1-c1ccnc(C(C)(C)C(F)(F)F)c1
IC50 [1]: 1360 nM
IC50 [2]: 1080 nM
IC50 [3]: 875 nM
IC50 [4]: 188 nM
IC50 [5]: < 31.6 nM
IC50 [6]: < 31.6 nM
viability, T/C [7]: 94.8%
viability, T/C [8]: 77.4%
viability, T/C [9]: 80.7%
viability, T/C [10]: 52.2%
viability, T/C [11]: 35.9%
viability, T/C [12]: 20%
viability, T/C [13]: 88.6%
viability, T/C [14]: 80.6%
viability, T/C [15]: 67.9%
viability, T/C [16]: 51.1%
viability, T/C [17]: 33.7%
viability, T/C [18]: 19.3%
viability, T/C [19]: 85.6%
viability, T/C [20]: 69%
viability, T/C [21]: 68.3%
viability, T/C [22]: 47.2%
viability, T/C [23]: 30.8%
viability, T/C [24]: 16.1%
viability, T/C [25]: 58%
viability, T/C [26]: 55%
viability, T/C [27]: 42.4%
viability, T/C [28]: 42.5%
viability, T/C [29]: 24.2%
viability, T/C [30]: 11.1%
viability, T/C [31]: 39.8%
viability, T/C [32]: 37%
viability, T/C [33]: 30.7%
viability, T/C [34]: 30.2%
viability, T/C [35]: 17.5%
viability, T/C [36]: 7.85%
viability, T/C [37]: 20.2%
viability, T/C [38]: 15.3%
viability, T/C [39]: 17.8%
viability, T/C [40]: 14.2%
viability, T/C [41]: 10.5%
viability, T/C [42]: 3.97%

CC1(C)CCC(CN2CCN(c3ccc(C(=O)NS(=O)(=O)c4ccc(NCC5CCOCC5)c([N+](=O)[O-])c4)c(Oc4cnc5[nH]ccc5c4)c3)CC2)=C(c2ccc(Cl)cc2)C1 + CC(Nc1ncnc2nc[nH]c12)c1cc2cccc(Cl)c2c(=O)n1-c1ccccc1
IC50 [1]: 4970 nM
IC50 [2]: 4870 nM
IC50 [3]: 5110 nM
IC50 [4]: 5040 nM
IC50 [5]: 5090 nM
IC50 [6]: 5170 nM
viability, T/C [7]: 118%
viability, T/C [8]: 88.3%
viability, T/C [9]: 114%
viability, T/C [10]: 105%
viability, T/C [11]: 81.1%
viability, T/C [12]: 2.05%
viability, T/C [13]: 92%
viability, T/C [14]: 101%
viability, T/C [15]: 111%
viability, T/C [16]: 117%
viability, T/C [17]: 78.8%
viability, T/C [18]: 1.83%
viability, T/C [19]: 104%
viability, T/C [20]: 107%
viability, T/C [21]: 105%
viability, T/C [22]: 106%
viability, T/C [23]: 84.2%
viability, T/C [24]: 2.05%
viability, T/C [25]: 95.6%
viability, T/C [26]: 106%
viability, T/C [27]: 103%
viability, T/C [28]: 98.4%
viability, T/C [29]: 82.5%
viability, T/C [30]: 2.34%
viability, T/C [31]: 99.9%
viability, T/C [32]: 96.9%
viability, T/C [33]: 104%
viability, T/C [34]: 97.9%
viability, T/C [35]: 83.9%
viability, T/C [36]: 2.02%
viability, T/C [37]: 97.2%
viability, T/C [38]: 79.9%
viability, T/C [39]: 103%
viability, T/C [40]: 89.1%
viability, T/C [41]: 85.6%
viability, T/C [42]: 2.02%

CCN1CCN(Cc2ccc(Nc3ncc(F)c(-c4cc(F)c5nc(C)n(C(C)C)c5c4)n3)nc2)CC1 + CC(Nc1ccc2c(c1)OCCn1cc(N3C(=O)OCC3C(F)F)nc1-2)C(N)=O
IC50 (curve of first compound, second compound 0.00316 µM): > 1000 nM
IC50 (curve of first compound, second compound 0.01 µM): 791 nM
IC50 [1]: 277 nM
IC50 [2]: 70.7 nM
IC50 [3]: 4.29 nM
IC50 [4]: < 3.16 nM
viability, T/C (second compound 0.00316 µM, first compound 0.00316 µM): 111%
viability, T/C (second compound 0.00316 µM, first compound 0.01 µM): 74.3%
viability, T/C (second compound 0.00316 µM, first compound 0.0316 µM): 103%
viability, T/C (second compound 0.00316 µM, first compound 0.1 µM): 74.1%
viability, T/C (second compound 0.00316 µM, first compound 0.316 µM): 66.2%
viability, T/C (second compound 0.00316 µM, first compound 1 µM): 56.5%
viability, T/C (second compound 0.01 µM, first compound 0.00316 µM): 102%
viability, T/C (second compound 0.01 µM, first compound 0.01 µM): 80%
viability, T/C (second compound 0.01 µM, first compound 0.0316 µM): 89.7%
viability, T/C (second compound 0.01 µM, first compound 0.1 µM): 76%
viability, T/C (second compound 0.01 µM, first compound 0.316 µM): 56.7%
viability, T/C (second compound 0.01 µM, first compound 1 µM): 48.3%
viability, T/C (second compound 0.0316 µM, first compound 0.00316 µM): 69.1%
viability, T/C (second compound 0.0316 µM, first compound 0.01 µM): 78.3%
viability, T/C [7]: 78.3%
viability, T/C [8]: 61.7%
viability, T/C [9]: 49.7%
viability, T/C [10]: 35.4%
viability, T/C (second compound 0.1 µM, first compound 0.00316 µM): 66%
viability, T/C (second compound 0.1 µM, first compound 0.01 µM): 66.2%
viability, T/C [13]: 59.1%
viability, T/C [14]: 46.3%
viability, T/C [15]: 28.3%
viability, T/C [16]: 21%
viability, T/C (second compound 0.316 µM, first compound 0.00316 µM): 46.5%
viability, T/C (second compound 0.316 µM, first compound 0.01 µM): 52%
viability, T/C [19]: 43.1%
viability, T/C [20]: 24.4%
viability, T/C [21]: 16.4%
viability, T/C [22]: 16.1%
viability, T/C (second compound 1 µM, first compound 0.00316 µM): 33%
viability, T/C (second compound 1 µM, first compound 0.01 µM): 40.3%
viability, T/C [25]: 21.9%
viability, T/C [26]: 14.2%
viability, T/C [27]: 12.3%
viability, T/C [28]: 13.1%

C[C@@H](NC(=O)c1ncnc(N)c1Cl)c1ncc(C(=O)Nc2cc(C(F)(F)F)c(Cl)cn2)s1
viability, T/C (compound 0.0316 µM): 107% [middle of 4 runs]
viability, T/C (compound 0.1 µM): 99.5% [middle of 4 runs]
viability, T/C (compound 0.316 µM): 118% [middle of 4 runs]
viability, T/C (compound 3.16 µM): 122% [middle of 4 runs]
viability, T/C (compound 10 µM): 120% [middle of 4 runs]
IC50 (curve of compound): > 10000 nM
